What was measured:
[1] = system: guinea pig tracheal spiral preparations; assay: Bronchodilation in vitro; guinea pig tracheal spiral preparations; format: cell-based; conditions: relative to total relaxation evoked in the presence of 10⁻³M isoprenaline; for Emax: Cavia porcellus, read-out: I.A. (Intrinsic Activity, efficacy)
Protocol: Male guinea pigs (300-600g) were stunned by a blow to the head and bled from the carotid artery. The trachea was exposed, dissected free of connective tissue, and transferred to oxygenated krebs solution at 37°C. Next, spirals (2 per trachea) were prepared by cutting the whole trachea spirally along its longitudinal axis and then dividing this spiral lengthwise. Each preparation was mounted, using silk thread, in a 10ml organ bath filled with krebs solution at 37°C and bubbled with 5% CO₂ with O₂. The resting tension of the preparations was set at 2g and changes in muscle tension were monitored isometrically by means of a UFI (2oz) force and displacement transducer (Ormed Ltd) connected to a Linseis pen recorder. All preparations were allowed to equilibrate for 60 minutes. During this equilibration period the preparations were washed by upward displacement at 15 minute intervals and, if necessary, the resting tension was readjusted to 2g using a mechanical micromanipulator system.
Once a steady resting tension had been obtained, the preparations were dosed cumulatively with the test compound (10⁻⁸-2x10⁻⁵M), and finally a maximum relaxation achieved by addition of 10⁻³M isoprenaline. The fall in tension evoked by the test compound was expressed as a percentage of the total relaxation evoked in the presence of 10⁻³M isoprenaline. Appropriate concentration-relaxation curves were then constructed and values for potency (IC₅₀) and efficacy (Intrinsic Activity, I.A.) were obtained.
The compositions of Krebs solution is: sodium chloride 118.07mM, sodium hydrogen carbonate 26.19mM, potassium chloride 4.68mM, potassium orthophosphate 1.18mM, magnesium sulphate septahydrate 1.8mM and calcium chloride 2.52mM;pH ca. 7.45.

[2] = system: Spontaneously hypertensive rats; assay: Blood pressure lowering activity, tail cuff method; format: in vivo
Protocol: Systolic blood pressure were recorded by a modification of the tail cuff method described by I.M. Claxton, M.G. Palfreyman, R.H. Poyser, R.L. Whiting, European Journal of Pharmacology, 37, 179 (1976). A W+W BP recorder, model 8005 was used to display pulses.Prior to all measurements rats were placed in a heated environment (33.5 ± 0.5°C) before transfer to a restraining cage. Each determination of blood pressure was the mean of at least 6 readings. Spontaneously hypertensive rats (ages 12-18 weeks) with systolic blood pressures >180 mmHg were considered hypertensive.

SMILES | Emax [1] [%] | % change in systolic B.P. ([2]; 1 mg/kg p.o., 1 h post dose) | % change in systolic B.P. ([2]; 1 mg/kg p.o., 2 h post dose) | % change in systolic B.P. ([2]; 1 mg/kg p.o., 4 h post dose) | also measured
C[C@@H]1CCC(=O)N1C1=CC(C)(C)c2ccc([N+](=O)[O-])cc21 [Example 27, 1,1-dimethyl-5-nitro-3-(5-(R)-methyl-2-oxopyrrolidin-1-yl)ind-2-ene] | 93 |  |  |  | 
CC1(C)c2ccc([N+](=O)[O-])cc2[C@@H](N2CCCC2=O)[C@@H]1O (relative stereo) [Example 1, trans - 1,1-dimethyl-5-nitro-3-(2-oxopyrrolidin-1-yl)-indan-2-ol] | 88 |  |  |  | % change in systolic B.P. ([2]; 10 mg/kg p.o., 1 h post dose): -48 ± 4(n=4) %; % change in systolic B.P. ([2]; 10 mg/kg p.o., 2 h post dose): -49 ± 6(n=3) %; % change in systolic B.P. ([2]; 10 mg/kg p.o., 4 h post dose): -42 ± 4(n=6) %; % change in systolic B.P. ([2]; 10 mg/kg p.o., 6 h post dose): -30 ± 4(n=6) %
C[C@@H]1CCC(=O)N1[C@@H]1c2cc([N+](=O)[O-])ccc2C(C)(C)[C@H]1O (mixture of isomers) [Example 26, Trans-1,1-Dimethyl-5-nitro-3-(5-(R)-methyl-2-oxopyrrolidin-1-yl)indan-2-ol] | 98 |  |  |  | 
CC1(C)c2ccc([N+](=O)[O-])cc2[C@@H](N2CCCCC2=O)[C@@H]1O (relative stereo) [Example 3, Trans 1,1-Dimethyl-5-nitro-3-(2-oxopiperidin-1-yl) indan-2-ol] | 89 | -33 ± 5 (n=5) % | -17 ± 3 (n=4) % | -22 ± 4 (n=6) % | % change in systolic B.P. ([2]; 1 mg/kg p.o., 6 h post dose): -19 ± 5 (n=6) %
CC1(C)c2ccc([N+](=O)[O-])cc2[C@@H](n2ccccc2=O)[C@@H]1O [Example 5, Trans-1,1-dimethyl-5-nitro-3-(2-pyridon-1-yl)indan-2-ol] | 91 | -40 (n=1) % | -43 (n=1) % | -43 ± 4 (n=1) % | % change in systolic B.P. ([2]; 1 mg/kg p.o., 6 h post dose): -31 ± 5 (n=5) %
CC1(C)C=C(CN2CCCC2=O)c2cc(C#N)ccc21 [Example 24, 5-Cyano-1,1-dimethyl-3-[(2-oxopyrrolidin-1-yl)methyl]ind-2-ene] | 59 |  |  |  | 
CC1(C)C=C(n2ccccc2=O)c2cc([N+](=O)[O-])ccc21 [Example 6, 1,1-Dimethyl-5-nitro-3-(2-pyridon-1-yl)ind-2-ene] | 95 | -18 ± 3% | -18 ± 3% | -13 ± 3% | 
CC1(C)c2ccc(C#N)cc2[C@@H](n2ccccc2=O)[C@@H]1O [Example 7, Trans-5-cyano-1,1-dimethyl-3-(2-pyridon-1-yl)-indan-2-ol] | 81 | -31 ± 3% | -22 ± 4% | -20 ± 4% | % change in systolic B.P. ([2]; 1 mg/kg p.o., 6 h post dose): -12 ± 6%
O=C(N[C@@H]1c2cc([N+](=O)[O-])ccc2C[C@H]1O)c1ccc(F)cc1 [Example 10, Trans-1-N-(4-fluorobenzamido)-6-nitroindan-2-ol] | 59 |  |  |  | 
CCc1ccc2c(c1)[C@@H](n1ccccc1=O)[C@H](O)C2(C)C (relative stereo) [Example 23, Trans 1,1-Dimethyl-5-ethyl-3-(2-pyridon-1-yl)indan-2-ol] |  |  |  |  | I.A. (Intrinsic Activity, efficacy) [1]: 0.92
CC1(C)c2ccc(N)cc2[C@@H](n2ccccc2=O)[C@@H]1O (relative stereo) [Example 9, Trans-5-amino-1,1-dimethyl-3-(2-pyridon-1-yl)indan-2-ol] |  |  |  |  | % change in systolic B.P. ([2]; 3 mg/kg p.o., 1 h post dose): -12 ± 2%; % change in systolic B.P. ([2]; 3 mg/kg p.o., 2 h post dose): -16 ± 3%; % change in systolic B.P. ([2]; 3 mg/kg p.o., 4 h post dose): -14 ± 4%; % change in systolic B.P. ([2]; 3 mg/kg p.o., 6 h post dose): -11 ± 2%
CC1(C)C=C(N2CCCCC2=O)c2ccc(C(F)(F)F)cc21 [Example 16, 1,1-dimethyl-3-(2-oxopiperidin-1-yl)-6-trifluoromethylind-2-ene] | 89 |  |  |  | 
CC1(C)C=C(N2CCCCC2=O)c2cc([N+](=O)[O-])ccc21 [Example 4, 1,1-dimethyl-5-nitro-3-(2-oxopiperidin-1-yl)ind-2-ene] | 94 |  |  |  | 
CC1(C)C=C(n2ccccc2=O)c2cc(C#N)ccc21 [Example 8, 5-Cyano-1,1-dimethyl-3-(2-pyridon-1-yl)ind-2-ene] | 77 | -12 ± 5% | -15 ± 3% | -26 ± 8% | % change in systolic B.P. ([2]; 1 mg/kg p.o., 6 h post dose): -21 ± 2%
CCc1ccc2c(c1)[C@@H](N1CCCCC1=O)[C@H](O)C2(C)C (relative stereo) [Example 17, Trans-1,1-Dimethyl-5-ethyl-3-(2-oxopiperidin-1-yl)indan-2-ol] | 76 |  |  |  | 
